Measured values reported in patent publication US20090215025A1, “SMALL PEPTIDIC AND PEPTIDO-MIMETIC AFFINITY LIGANDS FOR FACTOR VIII AND FACTOR VIII-LIKE PROTEINS” (TECHNISCHE UNIVERSITAT MUNCHEN, priority 2005, published 2009).
[ ]: non-standard residue; d: D form. Bpa = N[C@@H](Cc1ccc(C(=O)c2ccccc2)cc1)C(=O)O; 1Nal = N[C@@H](Cc1cccc2ccccc12)C(=O)O; 2Nal = N[C@@H](Cc1ccc2ccccc2c1)C(=O)O

Experiments:
[1] = target: T1, plasma-derived (pd-) human Factor VIII (FVIII) (Homo sapiens, UniProt P00451); assay: Binding of 125I-labeled pd-FVIII to peptides immobilized on Toyopearl AF-Epoxy-650M resin (micro-beads assay)
T1 construct: from tissue; host or cells: human blood plasma (FVIII concentrate)
Procedure: Peptides P1 to P25 were immobilized on the Toyopearl AF-Epoxy-650M resin (Tosoh Biosep) as described by Jungbauer et al. For immobilization, 2.5 mg of each peptide was dissolved in 0.25 mL of the immobilization buffer (0.2 M sodium bicarbonate, pH 10.3), and 0.036 g of the dry resin powder (corresponding to 0.125 mL of swollen resin) was added, followed by incubation of the mixture with gentle rotation for 48 hours. Upon incubation for 48 hours the resin was washed once with immobilization buffer, once with 1 M NaCl and then 3 times with binding buffer, and binding of ^125I-labeled pd-FVIII to the peptide-coated and control resin was tested. The coupling density of each peptide in each of the reported experiments was as mentioned in Table 1. The control 0.25 mL portion of the resin was similarly treated in parallel experiment in the absence of peptide and was subsequently used as a control (designated as Background) in ^125I-pd-FVIII binding experiments. ^125I-pd-FVIII Bound/Background ratios were calculated as the amount of ^125I-pd-FVIII, bound to an immobilized peptide, divided by that bound to uncoated control resin, prepared as described above. This ratio represents a Signal/Noise ratio for the micro-beads assay, since ^125I-pd-FVIII bound to peptide represents the signal value and ^125I-pd-FVIII bound to peptide-uncoated resin represents the background (noise) value.
Plasma-derived (pd-) human Factor VIII (FVIII) was purified from concentrate by immunoaffinity chromatography on an anti-FVIII monoclonal antibody column followed by subsequent concentration of pd-FVIII by ion-exchange chromatography using Resource Q HR5/5 column. To separate FVIII from vWf, concentrate was incubated in 0.35 M NaCl, 0.04 M CaCl2, prior to affinity purification.
Trace amounts of vWf, which are potentially present in pd-FVIII preparation, were removed by passing pd-FVIII preparation through the column with anti-vWf high affinity monoclonal antibody, immobilized at the density 1.4 mg per mL of resin.
Ten μg of purified pd-FVIII were iodinated using lactoperoxidase beads and 0.5 mCi of Na^125I.
The resin with immobilized peptides was washed in the binding buffer (0.01 M Hepes, 0.1 M NaCl, 5 mM CaCl2, 0.01% Tween-80). Subsequently, the resin was diluted in the binding buffer as 1:7 slurry and aliquoted into Eppendorf tubes (40 μl per tube). ^125I-pd-FVIII (100000 cpm in 10 μl) was added to the tubes and the volume of the mixture was adjusted to 100 μl by adding 50 μl of the binding buffer containing 4% BSA to give a 2% final concentration of BSA. After 2 hours of incubation at room temperature on a rotator, the samples were washed 4 times in the binding. After each wash the tubes were centrifuged at 5000 rpm for 1 min in an Eppendorf microcentrifuge, supernatant was discarded, and the resin was re-suspended in the washing buffer, followed by centrifugation under the same conditions. After four washes the tubes with pellet without supernatant were counted for radioactivity. The resin without peptide was processed similarly to account for non-specific pd-FVIII binding to tubes and resin itself, and the radioactivity in this control tube was considered as a background value. Since ^125I-pd-FVIII contains the some fraction damaged during radiolabeling, binding was calculated as a percent of maximal achievable binding, determined in separate experiment with anti-FVIII Mab 8860-coated resin.
All the measurements were performed in duplicates. Each experiment was performed using two independently prepared immobilized peptide samples. The data presented in each figure are the mean values of the four determinations: duplicate determination in the two assays performed with beads on which peptides were independently immobilized on the different days. […]

pd-FVIII [2] = target: T2, pd-FVIII (Homo sapiens, UniProt P00451); assay: Affinity chromatography purification of FVIII on peptide-coated resin column (OD280, one-stage APTT activity); settings: P1; FBS-containing conditioned DMEM spiked with FVIII
T2 construct: from tissue; host or cells: human blood plasma (FVIII concentrate)

pd-FVIII [3] = target: T2, pd-FVIII; assay: as above; settings: P1; Pure fVIII
Procedure: The peptido-mimetic derivative P22 was immobilized on the Toyopearl resin as described in Example 1. 25 mg of peptide and 360 mg of resin were used. The resulting resin (˜1 ml) was packed in a glass column (Pharmacia-Biotech). The purification procedure was performed using a Waters 650E Advanced Protein Purification System. Buffer A was 0.01 M Hepes, 0.1 M NaCl, 5 mM CaCl2, 0.01% Tween-80 and Buffer B was 0.01 M Hepes, 1 M NaCl, 5 mM CaCl2, 0.01% Tween-80 (pH 6.8). The elution was monitored by a flow-through UV detector (Waters 490 E) by optical density at 280 nm (OD280). The elution fractions were then analyzed for their protein content by determining OD280 and FVIII activity was determined in a one-stage APTT assay using MLA Electra-800 automatic coagulation timer. The samples from elution fractions were analyzed by 10% PAGE followed by silver staining and Western blotting using monoclonal antibodies against FVIII.
FVIII (0.5 mg), previously purified by immunoaffinity and ion-exchange chromatography as described above, was diluted by 0.01 M Hepes, 5 mM CaCl2, 0.01% Tween-80 to a final salt concentration of 0.1 M NaCl. The mixture was applied onto the P22-column, followed by wash with Buffer A, until the OD280 returned to background.
The purification of FVIII was performed from cell-conditioned FBS-containing SF9 media, spiked with FVIII. FVIII (0.5 mg), previously purified by immunoaffinity and ion-exchange chromatography as described above, was mixed with cell-conditioned FBS-containing SF9 media, which was diluted with 0.01 M Hepes, 5 mM CaCl2, 0.01% Tween-80 to a final salt concentration of 0.1 M NaCl. The mixture was applied onto the column, followed by wash with Buffer A, until the OD280 returned to background. The wash with 85% Buffer A 15% Buffer B was performed to elute some of bound contaminating proteins.
Peptide P1 was bonded to the resin as described in Example 1. 25 mg of peptide and 360 mg of resin were used. The resulting resin (˜1 ml) was packed in a glass column (Pharmacia-Biotech). A FVIII containing sample was purified as described with respect to Example 3, the only difference between the two experiments being the absence of a prelusion step with Buffer A in the present experiment.

[4] = Table 1, 125I-pd-FVIII Bound/Background ratio versus uncoated control resin
[5] = Table 1, immobilized on Toyopearl AF-Epoxy-650M, percent of maximal achievable binding (anti-FVIII Mab 8860-coated resin), mean of four determinations

T1 sequence (P00451 20-1667 limits assumed): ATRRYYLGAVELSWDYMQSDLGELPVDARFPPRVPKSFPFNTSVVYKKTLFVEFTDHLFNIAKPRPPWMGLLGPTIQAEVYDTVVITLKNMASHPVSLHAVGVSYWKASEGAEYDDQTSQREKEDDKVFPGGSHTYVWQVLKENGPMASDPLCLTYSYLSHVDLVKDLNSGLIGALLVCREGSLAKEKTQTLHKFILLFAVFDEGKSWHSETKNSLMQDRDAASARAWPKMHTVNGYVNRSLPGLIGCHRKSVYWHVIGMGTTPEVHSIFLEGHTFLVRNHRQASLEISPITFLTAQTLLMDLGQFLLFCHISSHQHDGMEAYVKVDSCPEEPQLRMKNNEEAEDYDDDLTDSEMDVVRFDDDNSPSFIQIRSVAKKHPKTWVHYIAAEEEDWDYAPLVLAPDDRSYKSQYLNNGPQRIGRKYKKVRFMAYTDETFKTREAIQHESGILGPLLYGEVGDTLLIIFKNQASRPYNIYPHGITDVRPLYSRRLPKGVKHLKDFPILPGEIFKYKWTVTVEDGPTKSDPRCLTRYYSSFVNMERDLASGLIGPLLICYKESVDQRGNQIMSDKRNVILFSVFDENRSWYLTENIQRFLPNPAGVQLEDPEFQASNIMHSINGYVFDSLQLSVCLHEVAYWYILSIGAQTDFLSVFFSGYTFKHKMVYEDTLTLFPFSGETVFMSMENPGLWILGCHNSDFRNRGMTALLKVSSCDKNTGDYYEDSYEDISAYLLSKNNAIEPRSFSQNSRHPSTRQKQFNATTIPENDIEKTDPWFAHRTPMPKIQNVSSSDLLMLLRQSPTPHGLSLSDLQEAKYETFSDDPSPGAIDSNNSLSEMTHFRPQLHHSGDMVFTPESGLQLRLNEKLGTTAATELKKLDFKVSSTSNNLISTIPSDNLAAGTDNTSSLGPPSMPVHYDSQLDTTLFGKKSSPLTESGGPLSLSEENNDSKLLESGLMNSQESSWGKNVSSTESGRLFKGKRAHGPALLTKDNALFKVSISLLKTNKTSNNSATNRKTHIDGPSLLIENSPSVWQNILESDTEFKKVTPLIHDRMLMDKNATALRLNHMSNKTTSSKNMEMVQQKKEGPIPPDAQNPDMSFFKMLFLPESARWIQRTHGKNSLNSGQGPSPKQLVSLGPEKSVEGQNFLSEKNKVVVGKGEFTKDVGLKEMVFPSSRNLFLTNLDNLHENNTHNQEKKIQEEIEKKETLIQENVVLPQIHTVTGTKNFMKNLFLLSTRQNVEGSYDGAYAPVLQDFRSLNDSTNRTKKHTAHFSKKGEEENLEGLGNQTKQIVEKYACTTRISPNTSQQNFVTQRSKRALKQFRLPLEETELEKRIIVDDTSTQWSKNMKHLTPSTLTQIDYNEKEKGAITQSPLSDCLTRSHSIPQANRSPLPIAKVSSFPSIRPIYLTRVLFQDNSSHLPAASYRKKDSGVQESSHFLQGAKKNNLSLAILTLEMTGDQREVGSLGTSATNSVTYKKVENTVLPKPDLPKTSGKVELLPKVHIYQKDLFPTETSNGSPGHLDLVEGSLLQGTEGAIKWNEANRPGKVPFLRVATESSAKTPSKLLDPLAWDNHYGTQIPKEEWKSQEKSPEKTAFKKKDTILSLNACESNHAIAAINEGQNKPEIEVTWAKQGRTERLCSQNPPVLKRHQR
T1 sequence (P00451 1668-2351 limits assumed): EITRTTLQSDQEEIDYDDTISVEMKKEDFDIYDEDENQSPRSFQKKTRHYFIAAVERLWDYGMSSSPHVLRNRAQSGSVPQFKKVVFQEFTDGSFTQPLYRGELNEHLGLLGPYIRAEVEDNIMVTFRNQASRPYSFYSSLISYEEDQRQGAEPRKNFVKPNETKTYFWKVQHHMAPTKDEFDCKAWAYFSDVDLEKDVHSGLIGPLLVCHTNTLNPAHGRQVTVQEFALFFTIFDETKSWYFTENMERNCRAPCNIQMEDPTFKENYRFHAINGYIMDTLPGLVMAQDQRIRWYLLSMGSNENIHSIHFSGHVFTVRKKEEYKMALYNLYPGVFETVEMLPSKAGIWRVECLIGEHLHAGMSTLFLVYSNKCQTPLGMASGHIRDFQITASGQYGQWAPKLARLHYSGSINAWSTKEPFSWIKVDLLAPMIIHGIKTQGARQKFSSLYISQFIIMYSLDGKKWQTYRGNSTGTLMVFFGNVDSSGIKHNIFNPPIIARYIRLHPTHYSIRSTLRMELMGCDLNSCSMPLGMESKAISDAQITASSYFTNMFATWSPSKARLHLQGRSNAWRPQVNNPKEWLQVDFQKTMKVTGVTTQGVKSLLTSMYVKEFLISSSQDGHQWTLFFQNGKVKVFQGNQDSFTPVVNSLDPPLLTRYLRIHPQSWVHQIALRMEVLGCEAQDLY
T2 sequence (P00451 20-1667 limits assumed): as the sequence (P00451 20-1667 limits assumed) above
T2 sequence (P00451 1668-2351 limits assumed): as the sequence (P00451 1668-2351 limits assumed) above

Binding, rel. to control [1, 4]	% Binding pdFVIII [1, 5]	Compound	further results
20.2 ± 2.5	57.2 ± 7.2%	IBA-Asp-Tyr-Cys-OH [Compound P18]	–
20.9 ± 1.7	47.6 ± 4.0%	H-Trp-Glu-Tyr-Cys-OH (H-WEYC-OH) [Compound P1]	Activity, Elution (pd-FVIII [2]): 66 IU/ml; Activity, Flow-through (pd-FVIII [2]): 6 IU/ml; OD 280, Elution (pd-FVIII [2]): 0.08; OD 280, Flow-through (pd-FVIII [2]): 0.49; Purification, times (pd-FVIII [2]): 13 times; Activity, Elution (pd-FVIII [3]): 552 IU/ml; Activity, Flow-through (pd-FVIII [3]): 9 IU/ml; OD 280, Elution (pd-FVIII [3]): 0.108; OD 280, Flow-through (pd-FVIII [3]): 0.02; Purification, times (pd-FVIII [3]): 2 times
18.9 ± 2.0	53.6 ± 5.7%	Ac-Trp-Glu-Tyr-Cys-NH2 (Ac-WEYC-NH2) [Compound P2]	–
22.7 ± 0.8	53.7 ± 1.9%	O=C(O)CCC(NCCc1c[nH]c2ccccc12)C(=O)NC(Cc1ccc(O)cc1)C(=O)NC(CS)C(=O)O (stereo not shown) [Compound P25]	–
19.8 ± 0.3	56.1 ± 0.9%	H-D-Cys-D-Tyr-D-Glu-D-Trp-OH [Compound P7]	–
22.7 ± 2.4	58.1 ± 6.1%	H-[2Nal]EYC-OH [Compound P14]	–
23.8 ± 2.2	60.9 ± 5.5%	H-WE[1Nal]C-OH [Compound P9]	–
21.9 ± 1.3	38.4 ± 2.3%	H-Trp-Glu-Tyr-homo-Cys-OH [Compound P3]	–
19.0 ± 3.0	54.1 ± 8.4%	H-Trp-Glu-Tyr(OMe)-Cys-OH [Compound P10]	–
21.4 ± 1.4	60.7 ± 4.1%	IPA-Asp-Tyr-Cys-OH [Compound P20]	–
15.2 ± 0.7	43.1 ± 2.0%	H-Trp-Glu-Tyr-Gly-Aha-Cys-OH [Compound P6]	–
26.1 ± 2.3	66.8 ± 5.9%	H-[1Nal]EYC-OH [Compound P13]	–
27.4 ± 1.3	52.7 ± 2.5%	H-Trp-Glu-Tyr-Gly-Cys-OH (H-WEYGC-OH) [Compound P4]	–
24.7 ± 0.3	70.1 ± 0.8%	IAA-Asp-Tyr-Cys-OH [Compound P16]	–
24.7 ± 1.5	62.7 ± 3.9%	IBA-Glu-Tyr-Cys-OH [Compound P17]	–
24.7 ± 2.7	62.8 ± 6.9%	H-Trp-Asp-Tyr-Cys-OH (H-WDYC-OH) [Compound P11]	–
–	–	ECYYEHWS [scrambled, reference compound]	% Binding pdFVIII ([1]; Table 2, comparative compound immobilized on Toyopearl AF-Epoxy-650M): 6.5 ± 0.5%; Binding, rel. to control ([1]; Table 2, ratio versus uncoated resin): 4.1 ± 0.3
8.7 ± 0.1	24.7 ± 0.1%	H-Trp-Glu-Phe-Cys-OH (H-WEFC-OH) [Compound P8]	–
22.3 ± 0.5	57.0 ± 1.39%	H-[Bpa]EYC-OH [Compound P12]	–
22.2 ± 1.9	42.7 ± 2.3%	H-Trp-Glu-Tyr-Aha-Cys-OH [Compound P5]	–
18.7 ± 1.7	53.2 ± 4.9%	IPA-Glu-Tyr-Cys-OH [Compound P19]	–
